From patent US10137171B2, “Methods of treatment using a pentapeptide derived from the C-Terminus of Glucagon-Like Peptide 1 (GLP-1)” (The General Hospital Corporation, priority 2011, dated 2018)
“Also recorded” adds a separate entry of the source. Where no end group is shown, it is not given here.

Assays:
diet-induced obese mice = experiment: Metabolic parameters in closed metabolic chambers (TSE PhenoMaster/LabMaster); assay type: in vivo, mouse
Excerpt: FIGS. 4A-C show the results of metabolic measurements of body weights, energy expenditure (VO2), and physical activities of mice during three days of monitoring in TSE-Systems metabolic cages. Mice were 37 weeks old and fed the very high fat diet for 31 weeks at the time of the study. 4A. Line graph showing body weights during three-day monitoring. Vehicle N=2; GLP-1s N=3. # p<0.01; ## p<0.006; ## p<0.008; ## p<0.007. 4B. Bar graph and line graph showing total body oxygen consumption (VO2) measured during both light and dark cycles for the three days of monitoring. Upper panel; Total VO2. Lower panel: Daily time-course of VO2 during light and dark cycles averaged over the three days. Vehicle N=2; GLP-1s N=3. 4C. Bar graph and line graph showing physical activity of the mice during the three days of the metabolic studies. Upper panel: Total activities averaged for light and dark cycles. Lower panel: Time-dependent measurements of activities. Activities were measured for hourly intervals during the light cycle of six hours (13:00 to 18:00) and for two hour intervals during the dark cycle of 12 hours (18:00 to 6:00). […] Vehicle N=2; GLP-1s N=3. The findings support a model of increased basal energy expenditure in mice infused with GLP-1(32-36)amide versus mice infused with control vehicle, independent of endogenous energy expenditure due to physical activity. N=3 mice for pentapeptide infusion and N=2 mice for control vehicle infusion.
FIGS. 4D-G show the results of metabolic measurements of energy expenditure (VO2) of monitoring in TSE-Systems metabolic cages. Mice were 33-34 weeks old and fed the very high fat diet for […] at the time of the study. 4D and 4E. Line graph and bar graph showing total body oxygen consumption (VO2) measured during the light phase during two days. 4F and 4G. Line graph and bar graph showing lean body oxygen consumption (VO2) measured during the light phase during two days.
Mice were single-caged for three days acclimatization and then transferred to single-cage metabolic chambers in a PhenoMaster/LabMaster system (TSE-Systems, Inc., Chesterfield, Mo.) for measurements of oxygen consumption, CO2, physical activity, and food intake during light and dark cycles for a period of 72 hrs.

[1] = system: insulin-resistant isolated mouse hepatocytes; experiment: ROS formation assay (isolated primary hepatocytes); assay type: cell-based; conditions: 30 mM glucose 24 h; peptide 10 pM, 100 pM and 100 nM (FIG. 9A)
Description: FIG. 9A is a bar graph showing suppression of the production of reactive oxygen species (ROS) by the pentapeptide GLP-1(32-36)amide in insulin-resistant isolated mouse hepatocytes. Hepatocytes were rendered insulin-resistant by their pre-incubation in 30 mM glucose. Primary hepatocytes from C57BL/6J mice were seeded at 2×10^5 cell per well in twelve-well plates and treated for 24 h with 30 mM glucose in the absence of presence of GLP-1(32-36)amide (10 pM, 100 pM and 100 nM). To measure ROS levels cells were washed twice in HBSS (Hanks' Balance Salt Solution) and incubated with 10 uM 5-(and 6)-carboxy-2′,7′-dichlorohydro-fluorescein diacetate (CM-H2DCFDA) (Molecular Probes) for 45 minutes. The media were removed and cells were lysed. ROS was measured in the cell lysates using a spectrofluorometer (485 nm/535 nm). Data were normalized to values obtained from untreated controls. The data shown are the means of two independent hepatocyte isolations+/−SEMs.
Primary hepatocytes from diet-induced obese (DIO) and C57BL/6J mice were seeded in 12-well plates at a density of 2×10^5/well for 24 h. C57BL/6J hepatocytes were treated with 30 mM glucose in the absence or presence of GLP-1(32-36)amide for 20 to 24 h and compared to DIO hepatocytes treated with GLP-1(32-36)amide. […] ROS was measured in the cell lysates using a spectrofluorometer (485 nm/535 nm). […]

## LVKGRamide (LVKGR-NH2) [GLP-1(32-36)amide, pentapeptide derived from the C-terminus of the glucoincretin hormone GLP-1]
diet-induced obese mice; VHFD 31 weeks, infusion twelve weeks, vehicle 52 (FIG. 4A)
  body weight during three-day metabolic chamber monitoring: 38 grams
diet-induced obese mice; indirect calorimetric studies
  cumulative food consumption vs vehicle: lower
diet-induced obese mice; light and dark cycles (FIG. 4C)
  physical activity vs vehicle: not significantly different; also recorded: not associated with changes; also recorded: no significant differences
diet-induced obese mice; light cycle and dark cycle (FIG. 4B)
  whole body oxygen consumption (Total VO2) vs vehicle: significantly higher
diet-induced obese mice; light cycle and dark cycle (FIG. 4D, 4E)
  resting oxygen consumption vs vehicle: increase
[1]
  ROS levels: prevented the rise in ROS levels; also recorded: suppression
